SMILES strings stand for the structures.

We go through 1 molecule from paper PMC5190074, “BET inhibition as a new strategy for the treatment of gastric cancer” (Oncotarget, 2016).

Holding throughout (test): biochemical
Common to all, as to set-up: thermal shift assay (real-time PCR machine), melting temperature shift of recombinant bromodomains at 2 uM protein

For one assay, the target named is T1, BAZ1A (Homo sapiens, UniProt Q9NRL2).
T1 construct: bromodomain
The procedure: (§1) The recombinant bromodomains at 2 μM were mixed with 10 μM inhibitors. The assays and data evaluation for melting temperatures were performed using a Real-Time PCR Mx3005p machine (Stratagene) and the protocols previously described. Experiments profiling the final compound (PNZ5) were performed in quadruplicates. […] Since its discovery in our own labs, similar inhibitors have also been disclosed by researchers at Boehringer Ingelheim [reference: patent, WO 2014/154760 [31]]. The inhibitor contains two possible acetyl-lysine mimetic moieties. In order to obtain molecular insights on the interaction of the developed inhibitor, the crystal structure of the first bromodomain of BRD4 in complex with PNZ5 was solved at 1.85 Å (Figure 2C and Supplementary Table 4, 5FBX.pdb). The inhibitor, coordinating residues and water molecules were well defined by the electron density. The dimethylisoxazole moiety mimicked the acetyl lysine side chain and formed two canonical hydrogen-bond interactions with Asn140 and water mediated hydrogen-bond with Tyr 97 (Figure 2C). The common network of waters within the binding site was also conserved in the BRD4(1)-PNZ5 complex. The compound was further stabilized by lipophilic interactions with residues forming the binding site Leu92, Leu94, Ile146. The [compound left out] substituent was well accommodated next to the WPF shelf, as well as the N1-methyl substituent that formed hydrophobic interactions with Trp81. The carbonyl on the isoindolinone established a water-mediated hydrogen bond with Lys91.

The next assay has as its target T2, BAZ1B (Homo sapiens, UniProt Q9UIG0).
T2 construct: bromodomain
On the procedure:
as §1

In a further assay the target is T3, BAZ2A (Homo sapiens, UniProt Q9UIF9).
T3 construct: bromodomain
On the procedure: as §1

For a further assay, the target named is T4, BRD1 (Homo sapiens, UniProt O95696).
T4 construct: bromodomain
On the procedure: as §1

In another assay the target is T5, BRD7 (Homo sapiens, UniProt Q9NPI1).
T5 construct: bromodomain
The procedure: as §1

The target of a further assay is T6, BRDT(2) (Homo sapiens, UniProt Q58F21).
T6 construct: bromodomain 2
On the procedure:
as §1

For the next assay, the target named is T7, BRPF1A (Homo sapiens, UniProt P55201).
T7 construct: gene BRPF1; isoform A bromodomain
On the procedure: as §1

For a further assay, the target named is T8, BRPF3 (Homo sapiens, UniProt Q9ULD4).
T8 construct: bromodomain
The procedure:
as §1

The next assay has as its target T9, CECR2 (Homo sapiens, UniProt Q9BXF3).
T9 construct: bromodomain
The procedure: as §1

A further assay has as its target T10, EP300 (Homo sapiens, UniProt Q09472).
T10 construct: bromodomain
The procedure: as §1

Another assay addresses T11, GCN5L2 (Homo sapiens, UniProt Q92830).
T11 construct: gene KAT2A; bromodomain
On the procedure: as §1

For a further assay, the target named is T12, MLL (Homo sapiens, UniProt Q03164).
T12 construct: gene KMT2A; bromodomain
On the procedure: as §1

The target in the next assay is T13, PB1(3) (Homo sapiens, UniProt Q86U86).
T13 construct: gene PBRM1; bromodomain 3
The procedure:
as §1

Another assay deals with T14, PB1(6) (Homo sapiens, UniProt Q86U86).
T14 construct: gene PBRM1; bromodomain 6
On the procedure:
as §1

The target in a further assay is T15, PHIP(2) (Homo sapiens, UniProt Q8WWQ0).
T15 construct: bromodomain 2
On the procedure: as §1

A further assay has as its target T16, SMARCA4 (Homo sapiens, UniProt P51532).
T16 construct: bromodomain
The procedure: as §1

The target of another assay is T17, SP140L (Homo sapiens, UniProt Q9H930).
T17 construct: bromodomain
The procedure: as §1

Another assay concerns the target T18, TAF1(2) (Homo sapiens, UniProt P21675).
T18 construct: bromodomain 2
The procedure:
as §1

Another assay addresses T19, TRIM28 (Homo sapiens, UniProt Q13263).
T19 construct: bromodomain
The procedure:
as §1

The next assay addresses T20, WDR9(2) (Homo sapiens, UniProt Q9NSI6).
T20 construct: gene BRWD1; bromodomain 2
The procedure:
as §1

T3 sequence (Q9UIF9 whole entry): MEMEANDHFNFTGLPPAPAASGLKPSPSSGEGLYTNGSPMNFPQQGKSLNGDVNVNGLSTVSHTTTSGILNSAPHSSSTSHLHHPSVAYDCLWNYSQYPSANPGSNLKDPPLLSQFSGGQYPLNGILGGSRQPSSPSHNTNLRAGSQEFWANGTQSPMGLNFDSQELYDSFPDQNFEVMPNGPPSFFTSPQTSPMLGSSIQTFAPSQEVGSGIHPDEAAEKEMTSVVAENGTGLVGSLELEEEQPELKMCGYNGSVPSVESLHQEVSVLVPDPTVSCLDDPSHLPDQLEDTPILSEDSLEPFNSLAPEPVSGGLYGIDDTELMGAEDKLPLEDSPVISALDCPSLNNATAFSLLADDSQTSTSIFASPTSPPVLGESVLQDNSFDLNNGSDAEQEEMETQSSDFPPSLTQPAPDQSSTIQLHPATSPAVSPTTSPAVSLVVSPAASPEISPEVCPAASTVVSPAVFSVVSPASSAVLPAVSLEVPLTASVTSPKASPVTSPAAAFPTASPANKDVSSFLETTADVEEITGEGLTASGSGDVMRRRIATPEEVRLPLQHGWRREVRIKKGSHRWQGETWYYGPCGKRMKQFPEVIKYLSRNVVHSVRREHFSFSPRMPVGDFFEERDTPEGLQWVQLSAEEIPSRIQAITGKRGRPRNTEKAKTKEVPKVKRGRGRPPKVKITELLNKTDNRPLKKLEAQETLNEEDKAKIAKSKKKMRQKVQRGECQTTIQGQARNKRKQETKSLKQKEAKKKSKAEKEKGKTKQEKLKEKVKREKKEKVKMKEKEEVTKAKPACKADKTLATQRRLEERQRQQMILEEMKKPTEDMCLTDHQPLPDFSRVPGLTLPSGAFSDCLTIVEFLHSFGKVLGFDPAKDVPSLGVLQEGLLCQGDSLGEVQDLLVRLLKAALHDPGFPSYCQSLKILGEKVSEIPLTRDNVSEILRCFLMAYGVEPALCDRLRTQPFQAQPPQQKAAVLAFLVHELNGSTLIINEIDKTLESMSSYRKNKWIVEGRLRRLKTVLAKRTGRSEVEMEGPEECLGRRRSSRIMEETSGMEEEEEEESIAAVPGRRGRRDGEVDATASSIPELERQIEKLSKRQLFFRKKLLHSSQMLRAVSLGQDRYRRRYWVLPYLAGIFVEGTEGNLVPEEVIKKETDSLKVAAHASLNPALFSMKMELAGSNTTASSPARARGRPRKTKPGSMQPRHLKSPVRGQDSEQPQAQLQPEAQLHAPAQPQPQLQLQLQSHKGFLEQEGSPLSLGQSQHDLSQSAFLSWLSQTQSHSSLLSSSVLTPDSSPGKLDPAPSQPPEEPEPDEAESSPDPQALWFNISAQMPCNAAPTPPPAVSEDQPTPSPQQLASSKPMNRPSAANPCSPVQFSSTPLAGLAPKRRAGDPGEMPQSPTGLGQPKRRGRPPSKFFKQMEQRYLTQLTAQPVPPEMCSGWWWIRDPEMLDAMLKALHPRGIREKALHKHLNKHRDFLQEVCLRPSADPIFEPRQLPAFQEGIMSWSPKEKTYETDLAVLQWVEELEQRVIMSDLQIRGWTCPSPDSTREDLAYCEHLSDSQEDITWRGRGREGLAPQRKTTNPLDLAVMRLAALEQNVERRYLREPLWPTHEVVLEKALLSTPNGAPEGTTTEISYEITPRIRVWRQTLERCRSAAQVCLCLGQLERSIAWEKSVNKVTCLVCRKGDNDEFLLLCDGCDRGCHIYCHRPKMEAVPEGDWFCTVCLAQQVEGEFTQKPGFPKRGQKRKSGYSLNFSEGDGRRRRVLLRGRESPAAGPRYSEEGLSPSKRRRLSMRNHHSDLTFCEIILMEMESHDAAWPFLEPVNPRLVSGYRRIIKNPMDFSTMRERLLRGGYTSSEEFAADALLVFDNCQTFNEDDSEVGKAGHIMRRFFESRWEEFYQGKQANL
T1 sequence (Q9NRL2 whole entry): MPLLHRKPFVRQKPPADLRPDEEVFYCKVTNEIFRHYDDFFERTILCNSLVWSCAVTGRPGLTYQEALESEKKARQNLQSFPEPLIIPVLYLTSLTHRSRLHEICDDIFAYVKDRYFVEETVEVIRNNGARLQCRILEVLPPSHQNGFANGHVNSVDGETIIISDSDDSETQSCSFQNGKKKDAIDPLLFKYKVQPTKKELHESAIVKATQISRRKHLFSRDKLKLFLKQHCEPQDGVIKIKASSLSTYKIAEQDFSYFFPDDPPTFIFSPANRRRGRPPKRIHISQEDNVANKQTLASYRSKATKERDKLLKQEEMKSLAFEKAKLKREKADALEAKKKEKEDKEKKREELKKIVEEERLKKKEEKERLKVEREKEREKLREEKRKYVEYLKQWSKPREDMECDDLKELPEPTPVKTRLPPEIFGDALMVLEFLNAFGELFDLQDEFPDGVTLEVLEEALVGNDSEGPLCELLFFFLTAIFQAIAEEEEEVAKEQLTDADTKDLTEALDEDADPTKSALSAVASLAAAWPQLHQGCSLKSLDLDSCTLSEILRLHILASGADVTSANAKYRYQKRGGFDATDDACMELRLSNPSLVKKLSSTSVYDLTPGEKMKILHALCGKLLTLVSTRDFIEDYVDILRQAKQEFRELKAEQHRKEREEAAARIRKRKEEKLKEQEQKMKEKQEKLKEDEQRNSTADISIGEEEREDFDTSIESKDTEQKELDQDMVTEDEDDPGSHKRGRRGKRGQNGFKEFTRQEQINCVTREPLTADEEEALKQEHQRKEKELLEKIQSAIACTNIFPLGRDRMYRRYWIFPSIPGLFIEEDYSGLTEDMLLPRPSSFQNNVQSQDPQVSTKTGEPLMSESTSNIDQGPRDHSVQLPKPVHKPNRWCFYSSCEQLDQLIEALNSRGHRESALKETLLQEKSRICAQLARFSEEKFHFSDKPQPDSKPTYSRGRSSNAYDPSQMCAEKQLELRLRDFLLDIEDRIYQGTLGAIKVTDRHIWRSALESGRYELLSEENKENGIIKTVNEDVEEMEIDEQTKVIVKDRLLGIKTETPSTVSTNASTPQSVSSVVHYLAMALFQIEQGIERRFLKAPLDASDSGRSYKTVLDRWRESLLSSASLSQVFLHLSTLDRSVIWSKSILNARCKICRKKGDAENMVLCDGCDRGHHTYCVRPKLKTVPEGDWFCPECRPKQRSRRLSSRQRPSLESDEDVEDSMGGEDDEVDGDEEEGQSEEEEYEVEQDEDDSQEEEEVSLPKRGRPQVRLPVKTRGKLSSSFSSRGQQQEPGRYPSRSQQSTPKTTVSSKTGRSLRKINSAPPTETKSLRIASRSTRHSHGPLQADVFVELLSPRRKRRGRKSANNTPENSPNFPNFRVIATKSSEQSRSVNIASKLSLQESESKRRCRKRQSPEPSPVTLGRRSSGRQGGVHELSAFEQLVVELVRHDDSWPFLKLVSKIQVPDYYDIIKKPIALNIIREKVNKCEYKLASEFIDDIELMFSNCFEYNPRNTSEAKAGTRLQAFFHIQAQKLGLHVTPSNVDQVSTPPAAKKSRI
T9 sequence (Q9BXF3 whole entry): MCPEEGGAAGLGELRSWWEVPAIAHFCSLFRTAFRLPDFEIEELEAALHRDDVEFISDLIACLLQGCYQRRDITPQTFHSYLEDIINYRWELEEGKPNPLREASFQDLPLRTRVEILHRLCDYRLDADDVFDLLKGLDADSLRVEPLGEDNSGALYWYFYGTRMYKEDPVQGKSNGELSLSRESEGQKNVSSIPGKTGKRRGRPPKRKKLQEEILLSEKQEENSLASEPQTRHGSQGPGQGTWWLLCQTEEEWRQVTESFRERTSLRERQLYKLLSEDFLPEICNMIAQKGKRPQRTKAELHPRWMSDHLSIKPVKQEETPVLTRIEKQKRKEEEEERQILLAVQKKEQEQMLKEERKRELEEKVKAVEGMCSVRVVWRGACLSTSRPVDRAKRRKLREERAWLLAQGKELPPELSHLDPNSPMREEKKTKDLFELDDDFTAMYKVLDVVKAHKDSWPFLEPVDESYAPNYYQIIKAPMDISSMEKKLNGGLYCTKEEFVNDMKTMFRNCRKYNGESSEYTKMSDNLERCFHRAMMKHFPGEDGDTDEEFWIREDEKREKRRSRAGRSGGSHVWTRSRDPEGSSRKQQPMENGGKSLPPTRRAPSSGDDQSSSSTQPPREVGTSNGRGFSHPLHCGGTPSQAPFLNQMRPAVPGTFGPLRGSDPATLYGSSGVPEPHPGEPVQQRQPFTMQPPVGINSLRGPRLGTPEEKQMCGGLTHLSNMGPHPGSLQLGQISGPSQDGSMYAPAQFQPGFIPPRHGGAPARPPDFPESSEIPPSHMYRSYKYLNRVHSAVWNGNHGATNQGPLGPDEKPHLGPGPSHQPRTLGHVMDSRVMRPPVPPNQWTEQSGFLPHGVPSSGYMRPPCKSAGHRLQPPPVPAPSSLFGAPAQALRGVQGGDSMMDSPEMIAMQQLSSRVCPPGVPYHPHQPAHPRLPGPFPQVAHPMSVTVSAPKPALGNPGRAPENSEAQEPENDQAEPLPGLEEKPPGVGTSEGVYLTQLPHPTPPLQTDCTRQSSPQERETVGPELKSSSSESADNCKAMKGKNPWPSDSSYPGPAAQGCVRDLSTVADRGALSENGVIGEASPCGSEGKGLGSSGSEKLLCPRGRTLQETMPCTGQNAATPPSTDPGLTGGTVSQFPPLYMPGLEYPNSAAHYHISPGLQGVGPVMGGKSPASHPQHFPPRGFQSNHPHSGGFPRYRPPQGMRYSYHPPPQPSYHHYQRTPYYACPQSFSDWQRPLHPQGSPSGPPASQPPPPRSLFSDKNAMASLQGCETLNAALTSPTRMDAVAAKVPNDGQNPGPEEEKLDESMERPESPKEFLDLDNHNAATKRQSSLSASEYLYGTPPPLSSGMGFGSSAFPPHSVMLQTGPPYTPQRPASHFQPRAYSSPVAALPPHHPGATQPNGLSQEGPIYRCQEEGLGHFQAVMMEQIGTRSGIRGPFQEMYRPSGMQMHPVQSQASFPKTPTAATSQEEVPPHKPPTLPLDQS

In the case of `Cc1noc(C)c1-c1ccc2c(c1)[C@H](c1ccccc1)N(C)C2=O` [PNZ5], the thermal shift (ΔTm) at 10 µM at BAZ1A came out at 1.2 °C; on BAZ1B, 1.67 °C; on BAZ2A it was 0.32 °C; at BRD1 it was 1.03 °C; at BRD7, 0.37 °C; on BRDT(2), 8.81 °C. Besides, the ΔTm at 10 µM on BRPF1A amounted to 0.81 °C; at BRPF3, 0.95 °C; on CECR2 it was 0.19 °C; at EP300, 2.49 °C; at GCN5L2 it was 0.25 °C; at MLL it was 0.49 °C. The ΔTm at 10 µM at PB1(3) is 0.12 °C; at PB1(6), 0.26 °C; on PHIP(2), 0.22 °C; on SMARCA4, 0.04 °C; at SP140L it was 1.05 °C; on TAF1(2), 0.19 °C. The thermal shift (ΔTm) at 10 µM on TRIM28 is -0.11 °C; on WDR9(2) it was 0.38 °C.

Broadly, the ΔTm is the change in melting temperature against a reference sample.
